Source: the supplement of paper PMC11061612

Experiments:
Experiment in all cases: Bliss excess, mean over the matrix (fraction); higher = more synergy
[1] = tested on: 22RV1 (Prostate Carcinoma)
Outline: (§1)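 After 24 hours at 37°C and 5% CO2 in 1536-well plates, cells in DMEM/F12 or RPMI plus 10% FBS received two-drug dose matrices for 72 hours. Viability came from CellTiter-Glo 2.0 luminescence and was scaled as inhibition, anchored at 0 by vehicle wells and at 1 by blank wells. Combination Emax is taken as the second-highest inhibition in the matrix, and Bliss excess as the observed combination effect less EA + EB − EA·EB, with EA and EB the single-agent effects.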

769-P (Kidney Carcinoma) = tested on: 769-P (Kidney Carcinoma)
Outline: as §1

A101D (Melanoma) = tested on: A101D (Melanoma)
Outline: as §1

A204 (Rhabdomyosarcoma) = tested on: A204 (Rhabdomyosarcoma)
Outline: as §1

[2] = tested on: A253 (Head and Neck Carcinoma)
Outline: as §1

[3] = tested on: A2780 (Ovarian Carcinoma)
Outline: as §1

AU565 (Breast Carcinoma) = tested on: AU565 (Breast Carcinoma)
Outline: as §1

[4] = tested on: CESS (Acute Myeloid Leukemia)
Outline: as §1

[5] = tested on: CGTH-W-1 (Thyroid Gland Carcinoma)
Outline: as §1

[6] = tested on: GCT (Other Solid Carcinomas)
Outline: as §1

[7] = tested on: HT55 (Colorectal Carcinoma)
Outline: as §1

[8] = tested on: JVM-2 (B-Cell Non-Hodgkin's Lymphoma)
Outline: as §1

[9] = tested on: LU-165 (Small Cell Lung Carcinoma)
Outline: as §1

[10] = tested on: MDA-MB-436 (Breast Carcinoma)
Outline: as §1

[11] = tested on: NCI-H2087 (Lung Adenocarcinoma)
Outline: as §1

[12] = tested on: NCI-H2228 (Lung Adenocarcinoma)
Outline: as §1

[13] = tested on: NCI-H716 (Colorectal Carcinoma)
Outline: as §1

[14] = tested on: SW620 (Colorectal Carcinoma)
Outline: as §1

[15] = tested on: UACC-812 (Breast Carcinoma)
Outline: as §1

[16] = tested on: huH-1 (Hepatocellular Carcinoma)
Outline: as §1

| SMILES | Bliss excess [1] | Bliss excess (769-P (Kidney Carcinoma)) | Bliss excess (A101D (Melanoma)) | Bliss excess (A204 (Rhabdomyosarcoma)) | Bliss excess [2] | Bliss excess [3] | Bliss excess (AU565 (Breast Carcinoma)) | Bliss excess [4] | Bliss excess [5] | Bliss excess [6] | Bliss excess [7] | Bliss excess [8] | Bliss excess [9] | Bliss excess [10] | Bliss excess [11] | Bliss excess [12] | Bliss excess [13] | Bliss excess [14] | Bliss excess [15] | Bliss excess [16] |
| --- | --- | --- | --- | --- | --- | --- | --- | --- | --- | --- | --- | --- | --- | --- | --- | --- | --- | --- | --- | --- |
| COc1nnc2ccc(N3CCC(c4ccc(OCCN5CCN(C)C(=O)[C@H]5C)cc4)CC3)nn12 [AZD5153] + CCN(CCO)CCCOc1ccc2c(Nc3cc(CC(=O)Nc4cccc(F)c4)[nH]n3)ncnc2c1 [AZD2811] (first compound max 1 µM, 7x7, partner max 1 µM) | -0.0252 | -0.0217 | -0.104 | -0.0849 | -0.0153 | -0.0295 | -0.0016 | 0.0259 | 0.0228 | -0.0201 | -0.0479 | -0.0498 | -0.06 | -0.0214 | -0.0645 | -0.0285 | -0.0316 | -0.0002 | -0.0742 | 0.0201 |
| CC1(C)CCC(CN2CCN(c3ccc(C(=O)NS(=O)(=O)c4ccc(NCC5CCOCC5)c([N+](=O)[O-])c4)c(Oc4cnc5[nH]ccc5c4)c3)CC2)=C(c2ccc(Cl)cc2)C1 [Venetoclax] + CN(C)CCCOc1ccc(-c2ccc3ncc4c(c3c2)n(C2CCOCC2)c(=O)n4C)cn1 [AZD0156] (first compound max 1 µM, 7x7, partner max 1 µM) | -0.0277 | -0.0276 | 0.0088 | -0.0325 | 0.0119 | -0.02 | 0.0206 | -0.0638 | -0.0286 | -0.0404 | -0.0443 | 0.0143 | -0.0309 | -0.0319 | -0.0389 | -0.0004 | -0.0272 | -0.0142 | -0.016 | -0.032 |
| CN(CCO)CC[C@H](CSc1ccccc1)Nc1ccc(S(=O)(=O)NC(=O)c2ccc(N3CCC([C@@H](O)c4ccccc4-c4ccc(Cl)cc4)CC3)cc2)cc1S(=O)(=O)C(F)(F)F [AZD4320] + CN(C)CCCOc1ccc(-c2ccc3ncc4c(c3c2)n(C2CCOCC2)c(=O)n4C)cn1 [AZD0156] (first compound max 1 µM, 7x7, partner max 1 µM) | -0.0416 | -0.0444 | -0.0298 | -0.0468 | 0.0114 | -0.0519 | 0.0203 | -0.0814 | -0.0346 | -0.0401 | -0.0158 | 0.0248 | -0.025 | -0.0496 | -0.0496 | -0.0225 | -0.0214 | -0.029 | -0.0283 | -0.0419 |
| C[C@@H]1COCCN1c1cc(C2([S@](C)(=N)=O)CC2)nc(-c2ccnc3[nH]ccc23)n1 [AZD6738] + O=C(c1cc(Cc2n[nH]c(=O)c3ccccc23)ccc1F)N1CCN(C(=O)C2CC2)CC1 [Olaparib] (first compound max 10 µM, 7x7, partner max 10 µM) | 0.0117 | -0.0656 | -0.0004 | -0.0075 | 0.0371 | 0.006 | 0.005 | 0.0222 | 0.0176 | -0.0027 | 0.0204 | -0.0708 | -0.0714 | -0.0176 | -0.0008 | -0.0305 | -0.0229 | 0.0218 | -0.0422 | -0.0162 |
| Cn1cnc2c(F)c(Nc3ccc(Br)cc3Cl)c(C(=O)NOCCO)cc21 [Selumetinib] + CCN(CCO)CCCOc1ccc2c(Nc3cc(CC(=O)Nc4cccc(F)c4)[nH]n3)ncnc2c1 [AZD2811] (first compound max 10 µM, 7x7, partner max 1 µM) | -0.0797 | -0.0062 | -0.0718 | -0.0772 | -0.018 | 0.0251 | -0.0167 | 0.0943 | -0.0329 | -0.0185 | 0.0032 | 0.0315 | -0.0377 | -0.006 | -0.0497 | -0.0357 | 0.044 | 0.0738 | -0.049 | -0.0492 |
| COc1nnc2ccc(N3CCC(c4ccc(OCCN5CCN(C)C(=O)[C@H]5C)cc4)CC3)nn12 [AZD5153] + Cc1c2c(nn1C)CSCc1cc(n(C)n1)CSc1cc(c3ccccc3c1)OCCCc1c(C(=O)O)n(C)c3c-2c(Cl)ccc13 [AZD5991] (first compound max 1 µM, 7x7, partner max 1 µM) | 0.0107 | -0.0716 | 0.0406 | -0.0116 | 0.0071 | -0.0324 | -0.0342 | -0.0124 | -0.025 | -0.0425 | -0.0445 | -0.0404 | -0.0173 | -0.0167 | -0.0328 | -0.0261 | 0.0076 | -0.0457 | 0.0365 | 0.0196 |
| CC1(C)CCC(CN2CCN(c3ccc(C(=O)NS(=O)(=O)c4ccc(NCC5CCOCC5)c([N+](=O)[O-])c4)c(Oc4cnc5[nH]ccc5c4)c3)CC2)=C(c2ccc(Cl)cc2)C1 [Venetoclax] + CCN(CCO)CCCOc1ccc2c(Nc3cc(CC(=O)Nc4cccc(F)c4)[nH]n3)ncnc2c1 [AZD2811] (first compound max 1 µM, 7x7, partner max 1 µM) | -0.001 | -0.0637 | -0.0182 | 0.0005 | 0.046 | 0.019 | 0.0097 | 0.0083 | -0.0078 | -0.004 | 0.0034 | 0.051 | -0.0665 | -0.023 | -0.0281 | -0.039 | -0.0813 | -0.0243 | -0.0283 | -0.0337 |
| CC1(C)CCC(CN2CCN(c3ccc(C(=O)NS(=O)(=O)c4ccc(NCC5CCOCC5)c([N+](=O)[O-])c4)c(Oc4cnc5[nH]ccc5c4)c3)CC2)=C(c2ccc(Cl)cc2)C1 [Venetoclax] + C[C@@H](Nc1cc(F)cc(F)c1)c1cc(C(=O)N(C)C)cc2c(=O)cc(N3CCOCC3)oc12 [AZD8186] (first compound max 1 µM, 7x7, partner max 3 µM) | -0.0172 | 0.049 | 0.0305 | -0.0152 | -0.0364 | -0.0138 | -0.0033 | -0.0244 | -0.0244 | -0.0154 | -0.0193 | 0.0354 | -0.0042 | -0.0092 | -0.0442 | 0.0129 | -0.047 | -0.0505 | -0.0319 | -0.0265 |
| C=CCn1c(=O)c2cnc(Nc3ccc(N4CCN(C)CC4)cc3)nc2n1-c1cccc(C(C)(C)O)n1 [AZD1775] + O=C(c1cc(Cc2n[nH]c(=O)c3ccccc23)ccc1F)N1CCN(C(=O)C2CC2)CC1 [Olaparib] (first compound max 1 µM, partner max 10 µM) | -0.0296 | -0.0578 | -0.0542 | -0.0881 | 0.0364 | -0.0256 | -0.0195 | -0.0054 | -0.0222 | -0.0327 | 0.0391 | 0.0055 | -0.103 | -0.0077 | -0.0212 | 0.0107 | -0.0695 | -0.0395 | -0.023 | -0.0118 |
| COc1cccc2c1C(=O)c1c(O)c3c(c(O)c1C2=O)C[C@@](O)(C(=O)CO)C[C@@H]3O[C@H]1C[C@H](N)[C@H](O)[C@H](C)O1 [Doxorubicin] + Cc1cc2ncnn2cc1Nc1ncc2c(n1)n(C1CCOCC1)c(=O)n2C [AZD7648] (first compound max 1 µM, 7x7, partner max 10 µM) | -0.0351 | 0.0903 | 0.0232 | 0.0782 | 0.108 | 0.0194 | 0.0753 | 0.11 | 0.0333 | 0.0589 | 0.0622 | 0.071 | -0.0534 | 0.0122 | 0.0107 | 0.0042 | 0.0113 | 0.0335 | -0.023 | 0.102 |
| Cc1c2c(nn1C)CSCc1cc(n(C)n1)CSc1cc(c3ccccc3c1)OCCCc1c(C(=O)O)n(C)c3c-2c(Cl)ccc13 [AZD5991] + C1CN(CCC1(C(=O)N[C@@H](CCO)C2=CC=C(C=C2)Cl)N)C3=NC=NC4=C3C=CN4 [Capivasertib] (first compound max 1 µM, 7x7, partner max 3 µM) | 0.0404 | -0.0369 | 0.0252 | -0.0305 | 0.0473 | -0.0233 | 0.0218 | -0.0114 | 0.0091 | -0.0219 | -0.0129 | 0.0245 | 0.0034 | -0.0204 | -0.0295 | -0.0225 | 0.0001 | -0.0325 | 0.0196 | -0.0149 |
| Cc1c2c(nn1C)CSCc1cc(n(C)n1)CSc1cc(c3ccccc3c1)OCCCc1c(C(=O)O)n(C)c3c-2c(Cl)ccc13 [AZD5991] + Cc1cc2ncnn2cc1Nc1ncc2c(n1)n(C1CCOCC1)c(=O)n2C [AZD7648] (first compound max 1 µM, 7x7, partner max 10 µM) | -0.0528 | -0.0328 | -0.0897 | -0.0466 | -0.0286 | -0.0224 | -0.0172 | 0.0437 | -0.0214 | -0.0702 | -0.0152 | -0.046 | 0.0045 | -0.042 | -0.0221 | -0.0413 | -0.0646 | -0.0421 | -0.0259 | -0.0224 |
| COc1cccc(OCCCN)c1-c1cc(Nc2cnc(C#N)cn2)n[nH]1 [Prexasertib] + CN(C)CCCOc1ccc(-c2ccc3ncc4c(c3c2)n(C2CCOCC2)c(=O)n4C)cn1 [AZD0156] (first compound max 1 µM, 7x7, partner max 1 µM) | -0.0213 | 0.0193 | 0.0419 | -0.018 | -0.0379 | 0.0127 | -0.073 | 0.0062 | -0.0614 | -0.0084 | 0.0444 | -0.0104 | -0.0723 | -0.0428 | -0.0405 | -0.0488 | 0.025 | -0.0032 | -0.0324 | -0.0422 |
| Cc1c2c(nn1C)CSCc1cc(n(C)n1)CSc1cc(c3ccccc3c1)OCCCc1c(C(=O)O)n(C)c3c-2c(Cl)ccc13 [AZD5991] + CCN(CCO)CCCOc1ccc2c(Nc3cc(CC(=O)Nc4cccc(F)c4)[nH]n3)ncnc2c1 [AZD2811] (first compound max 1 µM, 7x7, partner max 1 µM) | -0.0004 | -0.0395 | -0.0169 | 0.0358 | 0.0542 | 0.0561 | 0.0367 | 0.192 | 0.0439 | 0.0106 | 0.0472 | 0.032 | -0.025 | -0.0406 | -0.0144 | 0.0161 | -0.0013 | 0.0591 | -0.0149 | 0.024 |
